From ChEMBL document CHEMBL1201862, “PubChem BioAssay data set” (2004)
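Values below derive from 48-hour exposures of cells grown in 96-well plates, with endpoints linearly interpolated between the two concentrations bracketing the appropriate inhibition level. GI50 marks 50% less growth.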 The source made the active and inactive calls. No stated cut-off is given here; in the data, active = GI50 up to about 1.1 µM and inactive = higher.

Legend:
Assay in all cases: NCI tumour cell line growth inhibition, 48 h
[1] = system: Malme-3M
[2] = system: HCC 2998
[3] = system: OVCAR-8
[4] = system: NCI-H226
[5] = system: MOLT-4
[6] = system: SW-620
[7] = system: DMS-114
[8] = system: SK-OV-3
[9] = system: A549
[10] = system: DMS-273
[11] = system: HCT-15
[12] = system: EKVX
[13] = system: HT-29
[14] = system: M14
[15] = system: SF-539
[16] = system: SNB-19
[17] = system: UO-31
[18] = system: RXF 631
[19] = system: DLD-1
[20] = system: U-251
[21] = system: SK-MEL-5
[22] = system: NCI-H522
[23] = system: HOP-92
[24] = system: RPMI-8226
[25] = system: 786-0
[26] = system: HOP-18
[27] = system: UACC-257
[28] = system: IGROV-1
[29] = system: COLO 205
[30] = system: HCT-116
[31] = system: SK-MEL-28
[32] = system: SNB-75
[33] = system: K562
[34] = system: NCI-H460
[35] = system: LXFL 529
[36] = system: A498
[37] = system: SN12C
[38] = system: OVCAR-3
[39] = system: KM12
[40] = system: LOX IMVI
[41] = system: CAKI-1
[42] = system: CCRF-CEM
[43] = system: SF-295
[44] = system: SNB-78
[45] = system: ACHN
[46] = system: M19-MEL
[47] = system: RXF 393
[48] = system: TK-10
[49] = system: UACC-62
[50] = system: NCI-H23
[51] = system: DU-145
[52] = system: MCF7
[53] = system: T47D
[54] = system: SK-MEL-2
[55] = system: SR
[56] = system: OVCAR-5
[57] = system: XF498
[58] = system: KM-20L2
[59] = system: NCI/ADR-RES
[60] = system: Hs-578T
[61] = system: SF-268
[62] = system: MDA-MB-231
[63] = system: HL-60
[64] = system: MDA-N
[65] = system: BT-549
[66] = system: OVCAR-4
[67] = system: HOP-62
[68] = system: PC-3

SMILES: COC(=O)/C(C#N)=C1\NN=NN1c1ccc(OC)cc1
- GI50 [1]: > 100 µM (inactive)
- GI50 [2]: > 100 µM (inactive)
- GI50 [3]: > 100 µM (inactive)
- GI50 [4]: > 100 µM (inactive)
- GI50 [5]: > 100 µM (inactive)
- GI50 [6]: > 100 µM (inactive)
- GI50 [7]: > 100 µM (inactive)
- GI50 [8]: > 100 µM (inactive)
- GI50 [9]: > 100 µM (inactive)
- GI50 [10]: > 100 µM (inactive)
- GI50 [11]: > 100 µM
- GI50 [12]: > 100 µM (inactive)
- GI50 [13]: > 100 µM (inactive)
- GI50 [14]: > 100 µM (inactive)
- GI50 [15]: > 100 µM (inactive)
- GI50 [16]: > 100 µM (inactive)
- GI50 [17]: > 100 µM (inactive)
- GI50 [18]: > 100 µM (inactive)
- GI50 [19]: > 100 µM (inactive)
- GI50 [20]: > 100 µM (inactive)
- GI50 [21]: > 100 µM (inactive)
- GI50 [22]: > 100 µM (inactive)
- GI50 [23]: > 100 µM (inactive)
- GI50 [24]: > 100 µM (inactive)
- GI50 [25]: > 100 µM (inactive)
- GI50 [26]: > 100 µM (inactive)
- GI50 [27]: > 100 µM (inactive)
- GI50 [28]: > 100 µM (inactive)
- GI50 [29]: > 100 µM (inactive)
- GI50 [30]: > 100 µM (inactive)
- GI50 [31]: > 100 µM (inactive)
- GI50 [32]: > 100 µM (inactive)
- GI50 [33]: > 100 µM (inactive)
- GI50 [34]: > 100 µM (inactive)
- GI50 [35]: > 100 µM (inactive)
- GI50 [36]: > 100 µM (inactive)
- GI50 [37]: > 100 µM (inactive)
- GI50 [38]: > 100 µM (inactive)
- GI50 [39]: > 100 µM (inactive)
- GI50 [40]: > 100 µM (inactive)
- GI50 [41]: > 100 µM (inactive)
- GI50 [42]: > 100 µM (inactive)
- GI50 [43]: > 100 µM (inactive)
- GI50 [44]: > 100 µM (inactive)
- GI50 [45]: > 100 µM (inactive)
- GI50 [46]: > 100 µM (inactive)
- GI50 [47]: > 100 µM (inactive)
- GI50 [48]: > 100 µM (inactive)
- GI50 [49]: > 100 µM (inactive)
- GI50 [50]: > 100 µM (inactive)

SMILES: CCN(CC)CCNC(=O)c1ccc(C)c(OCc2ccccc2)c1[N+](=O)[O-]
- GI50 [1]: 16.9 µM (inactive)
- GI50 [2]: 28.8 µM (inactive)
- GI50 [3]: > 100 µM (inactive)
- GI50 [4]: 44.8 µM (inactive)
- GI50 [5]: 28.7 µM (inactive)
- GI50 [51]: > 90.2 µM (inactive)
- GI50 [52]: 22.3 µM (inactive)
- GI50 [6]: 18.3 µM (inactive)
- GI50 [53]: 20.7 µM (inactive)
- GI50 [54]: 21.2 µM (inactive)
- GI50 [7]: 26.5 µM (inactive)
- GI50 [8]: 34.2 µM (inactive)
- GI50 [9]: 44.8 µM (inactive)
- GI50 [55]: 27.7 µM (inactive)
- GI50 [10]: 23.6 µM (inactive)
- GI50 [11]: 21 µM
- GI50 [12]: 68.5 µM (inactive)
- GI50 [13]: 19.1 µM (inactive)
- GI50 [56]: 35.9 µM (inactive)
- GI50 [14]: 17.8 µM (inactive)
- GI50 [15]: 33.7 µM (inactive)
- GI50 [16]: > 80.7 µM (inactive)
- GI50 [17]: 21 µM (inactive)
- GI50 [19]: 34.3 µM (inactive)
- GI50 [20]: 39.7 µM (inactive)
- GI50 [21]: 16.3 µM (inactive)
- GI50 [57]: 20.8 µM (inactive)
- GI50 [22]: 27 µM (inactive)
- GI50 [23]: 24.9 µM (inactive)
- GI50 [58]: 27.2 µM (inactive)
- GI50 [59]: 33.4 µM (inactive)
- GI50 [24]: 25.8 µM (inactive)
- GI50 [60]: 28.6 µM (inactive)
- GI50 [61]: 63.2 µM (inactive)
- GI50 [25]: 33.3 µM (inactive)
- GI50 [26]: > 100 µM (inactive)
- GI50 [27]: 19.1 µM (inactive)
- GI50 [28]: 62.8 µM (inactive)
- GI50 [29]: 16 µM (inactive)
- GI50 [30]: 23 µM (inactive)
- GI50 [31]: 19.4 µM (inactive)
- GI50 [32]: 18 µM (inactive)
- GI50 [33]: 19.2 µM (inactive)
- GI50 [34]: 36.6 µM (inactive)
- GI50 [35]: 18 µM (inactive)
- GI50 [36]: 50 µM (inactive)
- GI50 [37]: 74.3 µM (inactive)
- GI50 [38]: 43.9 µM (inactive)
- GI50 [62]: 35.6 µM (inactive)
- GI50 [39]: 39.9 µM (inactive)
- GI50 [63]: 19.5 µM (inactive)
- GI50 [64]: 19.9 µM (inactive)
- GI50 [40]: 22.5 µM (inactive)
- GI50 [65]: > 35.8 µM (inactive)
- GI50 [41]: 20.7 µM (inactive)
- GI50 [66]: 56.8 µM (inactive)
- GI50 [42]: 31.2 µM (inactive)
- GI50 [43]: 24.5 µM (inactive)
- GI50 [44]: 61.9 µM (inactive)
- GI50 [45]: 56.8 µM (inactive)
- GI50 [46]: 18.1 µM (inactive)
- GI50 [47]: 52.5 µM (inactive)
- GI50 [67]: 28.6 µM (inactive)
- GI50 [48]: 61.2 µM (inactive)
- GI50 [68]: 45.3 µM (inactive)
- GI50 [49]: 20.7 µM (inactive)
- GI50 [50]: 54.3 µM (inactive)

SMILES: O=P(O)(O)C1CCCC(P(=O)(O)O)N1 (centres undefined)
- GI50 [3]: > 100 µM (inactive)
- GI50 [4]: > 100 µM (inactive)
- GI50 [5]: > 100 µM (inactive)
- GI50 [7]: > 100 µM (inactive)
- GI50 [8]: > 100 µM (inactive)
- GI50 [9]: > 100 µM (inactive)
- GI50 [55]: > 100 µM (inactive)
- GI50 [10]: > 100 µM (inactive)
- GI50 [12]: > 100 µM (inactive)
- GI50 [13]: > 100 µM (inactive)
- GI50 [56]: > 100 µM (inactive)
- GI50 [14]: > 100 µM (inactive)
- GI50 [16]: > 100 µM (inactive)
- GI50 [17]: > 100 µM (inactive)
- GI50 [18]: > 100 µM (inactive)
- GI50 [20]: > 100 µM (inactive)
- GI50 [22]: > 100 µM (inactive)
- GI50 [23]: > 100 µM (inactive)
- GI50 [58]: > 100 µM (inactive)
- GI50 [61]: > 100 µM (inactive)
- GI50 [27]: > 100 µM (inactive)
- GI50 [28]: > 100 µM (inactive)
- GI50 [30]: > 100 µM (inactive)
- GI50 [31]: > 100 µM (inactive)
- GI50 [34]: > 100 µM (inactive)
- GI50 [36]: > 100 µM (inactive)
- GI50 [39]: > 100 µM (inactive)
- GI50 [63]: > 100 µM (inactive)
- GI50 [42]: > 100 µM (inactive)
- GI50 [43]: > 100 µM (inactive)
- GI50 [44]: > 100 µM (inactive)
- GI50 [45]: > 100 µM (inactive)
- GI50 [46]: > 100 µM (inactive)
- GI50 [47]: > 100 µM (inactive)
- GI50 [67]: > 100 µM (inactive)
- GI50 [48]: > 100 µM (inactive)
- GI50 [50]: > 100 µM (inactive)
